Assay results published in patent US11820745B2, “PKC-activating compounds for the treatment of neurodegenerative diseases” (Synaptogenix, Inc., priority 2008, dated 2023).

Key:
PKCε = target: T1, PKCε (Homo sapiens, UniProt Q02156); experiment: Protein kinase C assay, purified/recombinant PKC epsilon (32P incorporation into histones); type: biochemical
T1 construct: purchased Calbiochem
T1 sequence (Q02156 1-737): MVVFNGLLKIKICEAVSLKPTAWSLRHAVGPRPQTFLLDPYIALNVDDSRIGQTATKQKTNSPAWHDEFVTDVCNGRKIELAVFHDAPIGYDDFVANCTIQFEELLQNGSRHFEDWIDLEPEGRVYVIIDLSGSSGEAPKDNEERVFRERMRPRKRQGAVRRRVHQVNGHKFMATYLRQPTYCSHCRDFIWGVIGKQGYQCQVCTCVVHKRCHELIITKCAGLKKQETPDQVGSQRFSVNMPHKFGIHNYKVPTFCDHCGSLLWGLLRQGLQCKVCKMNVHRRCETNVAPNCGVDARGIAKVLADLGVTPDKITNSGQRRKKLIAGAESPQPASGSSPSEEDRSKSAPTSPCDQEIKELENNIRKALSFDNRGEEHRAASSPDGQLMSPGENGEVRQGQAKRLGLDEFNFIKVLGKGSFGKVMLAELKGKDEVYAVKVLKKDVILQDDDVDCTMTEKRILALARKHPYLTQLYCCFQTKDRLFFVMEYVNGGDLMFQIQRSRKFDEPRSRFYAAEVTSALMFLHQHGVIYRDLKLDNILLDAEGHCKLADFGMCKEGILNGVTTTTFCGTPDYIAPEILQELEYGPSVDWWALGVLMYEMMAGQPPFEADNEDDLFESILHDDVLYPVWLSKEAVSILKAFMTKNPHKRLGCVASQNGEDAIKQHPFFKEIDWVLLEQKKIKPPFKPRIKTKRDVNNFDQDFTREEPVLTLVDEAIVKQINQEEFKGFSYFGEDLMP
Method: Protein kinase C assay. Recombinant PKC (1 ng of alpha or epsilon isofonn) was mixed with the BR-101 (UCP-LA) in the presence of 10 micromoiar histones, 5 mM CaCl2, 1.2 μg/μl phosphatidyl-L-serine, 0.18 μg/μl 1,2-dioctanoyl-sn-glycerol (DAG), […], […] (pH 7.4), 0.8 tnIVI EDTA, 4 mM EGTA, 4% glycerol, 8 μg/ml aprotinin, 8 μ/ml leupeptin, and 2 mM benzamidine. 0.5 micro Ci [^y32P]ATP was added. The incubation mixture was incubated for 15 min at 37 degrees in a total volume of 10 microliters. The reaction was stopped by spotting the reaction mixtures on 1×2 cm strips of cellulose phosphate paper (Whatman P81) and immediately washing twice for 1 hr in 0.5% H3PO4. The cellulose phosphate strips were counted in a scintillation counter. In some experiments, phosphatidylserine, diacylglycerol, and/or calcium were removed.
Protein kinase C assay. Rat hippocampal cells were cultured and scraped in 0.2 ml homogenization buffer (20 triM Tris-HCl, pH 7.4, 50 mM NaF, 1 μg/ml leupeptin, and 0.1 mM PMSF) and homogenized by sonication in a Marsonix micro-probe sonicator (5 see, 10W). To measure PKC, 10 ul of cell homogenate or purified. PKC isozyme (purchased from Calbiochem) was incubated for 15 min at 37° C. in the presence of 10 μM histones, 4.89 mM CaCl2, 1.2 μg/μl phosphatidyl-L-serine, 0.18 μg/μl 1,2-dioctanoyl-sn-glycerol, 10 mM MgCl2, 20 mM HEPES (pH 7.4), 0.8 mM EDTA, 4 mM EGTA, 4% glycerol, 8 μg/ml aprotinin, 8 μg/ml leupeptin, and 2 mM benzamidine. 0.5 μCi [^γ-32P]ATP was added and ^32P-phosphoprotein formation was measured by adsorption onto phosphocellulose as described previously. Nelson and Alkon, J. Neurochemistry. 1995; 65: 2350-57. For measurements of activation by BR-101 (DCP-LA) and similar compounds, PKC activity was measured in the absence of diacylglycerol and phosphatidyl serine, as described by Kanno et al., and PKC δ, ε, η, and μ were measured in the absence of added EGTA and CaCl2, as described by Kanno et al., J. Lipid Res. 2006; 47: 1146-50. Low concentrations of Ca^2+ are used because high Ca^2+ interacts with the PKC phosphatidylserine binding site and prevents activation. For measurements of bryostatin activation, 1,2-diacylglycerol was omitted unless otherwise stated.
To determine their PKC isozyme specificity, the new compounds were preincubated with purified PKC for five minutes and the PKC activity was measured radiometrically.

Aβ = Aβ levels in N2a neuroblastoma cells transfected with human APPSwe/PSID (Aβ1-42 ELISA); type: cell-based, mouse; conditions: for levels of intracellular Aβ / levels of secreted Aβ: 24 h incubation, various concentrations; for levels of intracellular Aβ: FIG. 7a; for levels of secreted Aβ: FIG. 7b; for concentration dependence of Aβ inhibition: BR-101 and BR-111 up to 10 to 100 μM
Method: Cell culture. Rat hippocampal H19-71GF-IR cells (ATCC, Manassas, Va.) were plated onto poly-L-lysine coated plates and grown at 35° C. in DMEM/10% FCS for several days until about 50% coverage was obtained. The cells were then induced to differentiate into a neuronal phenotype by replacing the medium with 5 ml N2 medium containing 10 ng/ml basic fibroblast growth factor at 39° C. and grown in T-75 flasks at 37° C. Human SH-SY5Y neuroblastoma cells (ATCC) were cultured in 45% F12K/45% MEM/10% FCS. Mouse N2A neuroblastoma cells were cultured in DMEM/10% FCS without glutamine. Rat hippocampal neurons from 18-day-old embryonic
(§1) AB Measurement and Cell Viability Assay. Aβ was measured using an Aβ1-42 human fluorimetric ELISA kit (Invitrogen) according to the manufacturer's instructions. Results were measured in a Biotek Synergy HT microplate reader. AlamarBlue and CyQuant NF (Invitrogen) according to the manufacturer's instructions.
To measure the effects of PKCε activation on Aβ production, we used mouse neuro2a (N2a) neuroblastoma cells transfected with human APPSwe/PSID, which produce large quantities of Aβ. Petanceska et al., J Neurochem. 1996; 74: 1878-84. […] With bryostatin, which activates PKC by binding to the diacylglycerol-binding site, the inhibition was biphasic, with concentrations of 20 nM or higher producing no net effect. This may be explained by the ability of this class of PKC activators to downregulate PKC when used at high concentrations.

[1] = test system: SH-SY5Y neuroblastoma cells; experiment: Cell survival and proliferation (alamar Blue, CyQuant) in SH-SY5Y neuroblastoma cells; type: cell-based, human; conditions: for effect on proliferation: CyQuant staining, FIG. 11b; for effect on cell survival: alamar Blue, FIG. 11a
Method: as §1

TACE = TACE assay in N2a mouse neuroblastoma cells; type: cell-based; conditions: FIG. 9a
Method: TACE Assay. TACE was measured by incubating 5 μl cell homogenate, 3 μl buffer (50 mM Tris-HCl 7.4 plus 25 mM NaCl plus 4% glycerol), and 1 of 100 μM TACE substrate IV (Aβz-LAQAVRSSSR-DPa) (Calbiochem) for 20 min at 37° in 1.5-ml polypropylene centrifuge tubes (Jin et al., Anal Biochem. 2002; 302: 269-75). The reaction was stopped by cooling to 4° C. The samples were diluted to 1 ml and the fluorescence was rapidly measured (ex=320 nm, em=420 nm) in a Spex Fluorolog 2 spectrofluorometer.

Compound	activation of PKCε (PKCε; at 10 μM, preincubated with purified PKC for five minutes)	activation of PKCε (PKCε; purified PKCε, lowest concentration tested (10 nM), FIG. 2)	levels of intracellular Aβ (Aβ)	levels of secreted Aβ (Aβ)	concentration dependence of Aβ inhibition (Aβ)	effect on proliferation [1]	effect on cell survival [1]	TACE activity (TACE)	activation of purified PKCε (PKCε; FIG. 3)	concentration needed to activate PKC, times lower than for BR-101 (DCP-LA) (PKCε; FIG. 3)
CCCCCC1CC1CC1CC1CCCCCCCC(=O)O (stereo not shown) [BR-101, 8-[2-(2-pentyl-cyclopropylmethyl)-cyclopropyl]-octanoic acid]	effective activator	2.75 fold	markedly reduced	markedly reduced	monotonically increasing inhibition	no effect	no effect	small increases		
CCC1CC1CC1CC1CC1CC1CC1CC1CC1CC1CC1CC1CCC(=O)OC (stereo not shown) [BR-111, methyl-3-(2-((2-((2-((2-((2-((2-ethylcyclopropyl)methyl)cyclopropyl)methyl)cyclopropyl)methyl)-cyclopropyl)methyl)cyclopropyl)methyl)cyclopropyl)propanoate]			markedly reduced	markedly reduced	monotonically increasing inhibition	no effect	no effect	small increases	activated purified PKCε to a similar extent	approx. 100 times
